In a melting point compilation (Tetko et al.; mined from patent text by program, amines drawn as free bases though some values may be those of a salt):

SMILES | melting point [°C]
CCCOC1(C=CCCCCC(=O)O)C=CC=CC1 (configuration not stated) | 52 to 53
O=C1c2c(O)ccc(O)c2C(=O)c2c(NCCN=Cc3ccccc3)ccc(NCCN=Cc3ccccc3)c21 | 174 to 179
CCCCOCCOc1ccc(-c2cnc(N3CCCC3)c(/C=C(\C)C(=O)O)c2)cc1 | 106 to 107
Cc1cc(-c2sc(N3CCN(Cc4ccc(C(=O)N5CCCCC5)cc4)C3=O)nc2C)[nH]n1 | 182 to 183
COc1ccc(C(=O)N2CCN(CC(=O)N3CC=C(c4cccc(C(F)(F)F)c4)n4ncc(C#N)c43)CC2)cc1 | 151 to 153
COc1ccc([N+](=O)[O-])c(N(C)C(=O)OC(C)(C)C)c1 | 122 to 124
CCn1c(N)c(C(N)=O)c(=O)c2cnc(Nc3cccc(N4CCOCC4)c3)nc21 | 195
Cc1ccc(S(=O)(=O)Oc2ccc(S(=O)(=O)c3c(C(C)C)cn4ncccc34)cc2)cc1 | 149
CCCc1c(C(=O)C(C)C)c2ccc(C(N)=O)cc2n1Cc1ccc(Br)cc1F | 197 to 198
COc1cc2cc3ncc(C#N)c(Nc4ccc(F)c(Cl)c4)c3cc2cc1OC | > 280
CCCCC(=O)c1c(CN2CCOCC2)nc2cc(OC)c(OC)cc2c1-c1ccc(OC)c(OC)c1 | 137 to 138
CCOC(=O)C=C(Nc1cn[nH]c1)C(=O)OCC | 69 to 71
CC(=O)Nc1cccc(C(=O)NCc2ccc(-n3c(-c4cccnc4N)nc4cc(C)cnc43)cc2)c1 | 180 to 181
O=Cc1ccn(C2=CC3=C(CC2)CCc2[nH]c(=O)c(=O)n(CC(=O)O)c23)c1 | > 250
CCc1c(C(=O)C(=O)NC2=CC(=O)OC2)c2ccccc2n1Cc1ccc(Cl)cc1 | 192 to 195
CCCc1nnc(N2CCN(c3ccc(N4CC(CNC(C)=O)OC4=O)cc3F)CC2)s1 (configuration not stated) | 208 to 209
C#CCCCn1ncc2c(OCC)c(C(=O)OCC)cnc21 | 84 to 85.5
CC(C)(C)N(CCOCC#Cc1cncs1)C(=O)C(=O)O | 104 to 105
CCCc1cc(CC(=O)O)ccc1OC1COc2ccc(C(C)=O)c(O)c2C1 (configuration not stated) | 129 to 130
O=[N+]([O-])c1c(OC(F)(F)F)ccc2nc(Cl)sc12 | 64
CCOC(=O)N1CCCSC1=C(C(C)=O)[N+](=O)[O-] | 52 to 54

SMILES | melting point [°C]
CN(CCNCc1c(O)c(Br)cc2c1CCC2(C)C)CCNC(=O)c1nc(Cl)c(N)nc1N | 134 to 136
CN1c2ccccc2S(=O)(=O)c2cc(C=Cc3ccc(-c4ccc(C=Cc5ccc6c(c5)S(=O)(=O)c5ccccc5N6C)cc4)cc3)ccc21 | 360
CNC(=C[N+](=O)[O-])NCc1cccnc1 | 159 to 160
CCc1oc(C2CCCCC2)nc1CC(=O)O | 101 to 102
CCOC(=O)c1cn(C2CC2)c2nc(N3C[C@@H](CN)[C@@H](Cl)C3)c(F)cc2c1=O (relative stereo) | 163 to 167
CCOC(=O)c1cnc2c(c1O)CC(C)CC2 (configuration not stated) | 228 to 231
Cc1[nH]c2ccc(NS(C)(=O)=O)cc2c1C1=CCN(C)CC1 | 176 to 184
COC(=O)c1ccc(NC(=O)Nc2ccc(OC)c(C34CC5CC(CC(C5)C3)C4)c2)cc1 | 223 to 224
O=C(O)CCc1cn(Cc2ccc(OCc3csc(-c4cccs4)n3)cc2)cc1-c1ccccc1 | 106 to 107
CCCCCCCCn1nnc(NC(=O)Nc2c(C(C)C)cccc2C(C)C)n1 | 139 to 140
CCN1CC(=O)N(C)c2cc(Nc3ncc(Cl)c(Nc4ccc(OC)cc4-n4cccn4)n3)c(OC)cc2C1 | 105 to 107
CCOC(=O)C1(N)C=CNN1c1cc(Cl)cc(Cl)c1 (configuration not stated) | 157 to 158
COC(=O)c1cc(C(C)(C)C)cc(C(C)(C)C)c1 | 52 to 52.5
CCCn1nnn(-c2cc(OC(C)=O)c(Cl)cc2Cl)c1=O | 91 to 92
NNCCCCS(=O)(=O)O | 152 to 154
CCOCc1nc2c(N)nc3ccc(OCc4ccccc4)cc3c2n1CC(C)(C)O | 181 to 182
CCOC(=O)c1nc(O)sc1C(=O)CBr | 105 to 108
NC(=O)c1cc(C(=O)N(CCO)CCO)cc([N+](=O)[O-])c1 | 151
CCC(C)(C)c1ccc2oc(-c3ccc(O)cc3)nc2c1 | 236 to 237
CCC(=O)Oc1cc(OC)cc(OC)c1C(=O)C=Cc1ccco1 | 93.6
CCOC(=O)c1cnc2nc(N3CCN(C)CC3)ncc2c1Cl | 173 to 175

Second part, the molecule after the results:

melting point [°C] | SMILES
121 to 122 | COc1ccc(-n2nc(Sc3cccc(C)c3)c(C)c(C#N)c2=O)cc1
164 to 165 | CC1(C)C2CC[C@@]1(C)C(C(=O)N1C(=O)OC(C#CC3CC3)(C(F)(F)F)c3cc(Cl)ccc31)C2 (some centres not stated)
158 to 161 | COC(=O)c1cccc2cc(-c3ccc(N)cc3)oc12
109 to 111 | COc1cccc(-c2cc3c4ccccc4ccn3n2)c1
105 to 106 | CS(=O)(=O)NC1CCCOc2ccccc21 (configuration not stated)
117 to 121 | CCOC(CNc1nc2ccccc2[nH]1)OCC
162 to 163 | CC(C)Oc1ccn2nc(-c3ccccc3)c(-c3ccc(=O)n(C(C)C)n3)c2c1
196 to 197 | Cc1nn(-c2cc(Nc3ccc(N)cc3)c(Cl)cc2Cl)c(=O)n1C(F)F
78 to 80 | CC(C)C(=O)CNC(=O)c1ccccc1
63 to 65 | Cc1oc2cc(CCl)ccc2c1C
205 to 207 | O=[N+]([O-])c1cccc2nc3c(nc12)OCC1CCCCN31 (configuration not stated)
214 to 215 | CNC(=O)c1cc2c(Oc3ccc(-n4cncn4)cc3)cncc2s1
188 to 189 | CC(=O)Nc1c(-c2ccccc2)nn2ccccc12
152 | CNC1NC(=O)c2ccccc21 (configuration not stated)
54 to 55.5 | N#CCC1COc2ccccc2C1 (configuration not stated)
67 to 68 | Cc1cccc([N+](=O)[O-])c1CO
50 to 52 | CC(=O)Cc1ccc(Oc2ccc(Cl)cc2)cc1
290 to 291 | COC(=O)c1ccc2oc(-c3ccccc3O)cc(=O)c2c1
87 to 89 | CCCCCCCCCCCCCCc1ccc2c(c1)C(=O)C(=O)N2
165 | O=C1CCC(N2C(=O)c3ccccc3C2=O)C(=O)N1CO (configuration not stated)

melting point [°C] | SMILES
174 | Fc1ccc(Cn2c(NC3CCN(CCSc4nc5ccccc5o4)CC3)nc3ccccc32)cc1
132 to 136 | CC(C)(C)c1ccc(C(=O)c2ccc(C(C)(C)C)cc2)cc1
237 | CC(=O)Nc1cc(N)c(Cl)cc1NC(C)=O
143 to 146 | Cc1ccc2c(c1)O[C@@H](CN1CCC(CNC(=O)c3cccnc3N)CC1)CO2
116 | COc1ccc(Sc2nc(-c3ccccc3)n(Cc3cc4c(cc3Cl)OCO4)c2C=O)cc1
244 to 246 | Nc1ccc(S(=O)(=O)c2cc(-c3ccc4ccccc4c3)nc(N3CCCC3)c2)cc1
190 to 191 | COC(=O)C(=NO)c1nc2c(C)c(Cl)ccc2oc1=O
142 to 143 | N#Cc1cc(C(=O)NNC(=O)c2occc2-c2ccccc2OCC2CCCCC2)ccc1O
63 to 65 | CCC1(O)c2ccccc2C=Cc2ccccc21
62 | COc1ccccc1-n1cnnc1C(F)(F)F
207 to 212 | O=C(O)COc1ccc2sc3ccccc3c(=O)c2c1
163 to 164 | CCOC(=O)c1cc(=O)c(O)c(-c2ccc(OC)cc2)o1
255 to 260 | Cn1cc(C2=C(c3cn(C)c4cc(C#N)ccc34)C(=O)NC2=O)c2ccc(N)cc21
223 to 224 | N#CCCNC(=O)c1n[nH]cc1NC(=O)c1ccccn1
182 to 187 | Cc1ccc(-c2cccc(C(=O)O)c2)cc1
150 | CCOC(=O)C1=C(C)NC(C)=C(C(=O)OC)C1c1cccc(C#N)c1 (configuration not stated)
123 to 125 | O=Cc1nn(-c2ccc(F)cc2)c2c1CCC2
74 to 76 | ClCc1ccc(OCc2ccccc2)cc1
122 to 124 | CCCS(=O)(=O)c1ccccc1S(N)(=O)=O
107 to 108 | CC(C)(C)OC(=O)N1CC(CCl)c2c1ccc1ccccc21 (configuration not stated)

melting point [°C] | SMILES
149 to 150 | CN1CCCC(Nc2ccnc3cc(Cl)ccc23)C1 (racemic)
140 to 142 | O=C1CCN(CC(c2ccccc2)c2ccccc2)CC1
184 to 186 | Cc1oc(-c2ccccc2)nc1CCOc1ccc(C[C@H](NCc2ccc(F)cc2)C(=O)O)cc1
87 | C[Si](C)(C)COc1cc([N+](=O)[O-])ccc1N
122 to 126 | O=Cc1cccc(OCC(O)CN2C(=O)c3ccccc3C2=O)c1 (configuration not stated)
193 to 195 | Clc1ccc(-c2cncn3cnnc23)cc1
149 to 151 | CCOc1ccc(C[C@@H](NC(=O)[C@H]2CC[C@H](C(C)C)CC2)C(=O)O)cc1
172 to 173 | CS(=O)c1[nH]cc(CCc2ccccc2)c1[N+](=O)[O-] (configuration not stated)
202 to 203 | CC(=O)NCC1CN(c2ccc(N3CCN(c4ncc([N+](=O)[O-])s4)CC3)c(F)c2)C(=O)O1 (configuration not stated)
119 to 120 | CC1(C(F)(F)F)CCCN1C(=O)c1c(F)cccc1F (configuration not stated)
112 to 113 | COc1ccc2c3c(c(=O)oc2c1)CN(CCN1CC2CCC1CC2)CC3
117 | C=C(C)n1c(=O)n(CC2CN(Cc3ccccc3)CCO2)c2ccccc21 (configuration not stated)
155 | O=C1CCCCN1CCc1c[nH]c2ccc(Cl)cc12
> 360 | Cc1nc2cc(-c3ccc(C=C4SC(=O)NC4=O)cn3)cc(C34CC5CC(CC(C5)C3)C4)c2o1
111 | Cc1ccc2cc(-c3cccc4ccccc34)ccc2n1
104 to 105 | COC(=O)C1Oc2ccccc2Cc2cccc(C)c2O1 (configuration not stated)
236 to 237 | CCC1Cc2c(nc3ccc(F)cc3c2C(=O)O)-c2ccc(-c3ccccc3F)cc21 (configuration not stated)
122 to 123 | C=C1N(CC)C(=O)OC12CCN(CCCN1c3ccccc3Sc3ccccc31)CC2
89 to 90 | O=C(c1cc2cc(OCCNC[C@H](O)COc3ccccc3Cl)ccc2o1)N1CCCC1
177 to 179 | CCc1ccc2nc(Cl)nc(Nc3ccccc3C)c2c1
